Laboratory results reported in patent US5045559A, “Treatment of skin disorders” (priority 1988, dated 1991).
Read-outs that look alike come from different tables or passages of the source.

Legend:
[1] = In vivo delivery to human stratum corneum (tritiated esters applied to arms of volunteers, tape stripping); settings: 18 hours; for Pyroglutamic acid delivered, Ethanol base: 1% w/v in anhydrous ethanol; for Pyroglutamic acid delivered, Cream base: 1% w/v in oil-in-water emulsion base
Source text: Accordingly, [^3 H] esters of pyroglutamic acid were each dissolved at 1% w/v in anhydrous ethanol or in an oil-in-water emulsion base. […] The [^3 H] pyroglutamic acid was separated from unchanged ester by chromotography on AG1X8 resin and the amount delivered to the skin expressed as nmoles per mg of stratum corneum protein.

[2] = In vitro delivery of pyroglutamic acid to stratum corneum of the rat (tritiated esters on newborn rat skin, resistant to 2 h water washing); format: in vitro ADME
Method: In vitro evidence to confirm delivery of pyroglutamic acid to stratum corneum of the rat
In an in vitro laboratory test, esters of pyroglutamic acid labelled with ^3 H on the pyroglutamic acid residue were applied as a 1% by weight solution in ethanol to newborn rat skin held in a glass cell, allowing the dermal side of the skin to be bathed in a buffered salts solution while the epidermal surface was exposed to normal atmospheric conditions. After 24 hours, samples of skin were taken and washed with continuous agitation in several charges of water at room temperature.
Interfollicular epidermis was removed from these skin pieces by "freeze scraping"-which avoids contamination of the sample by follicular tissue or material trapped within the hair follicle. The epidermis was then extracted in methanol and the soluble extract analysed by column chromatography. The amount of tritiated pyroglutamic acid present in the epidermis in a form resistant to a period of 2 hours continuous washing with water was measured. The quantity of tritiated pyroglutamic acid delivered and retained by the skin in this way is recorded in Table 1 below: […]

Structure (SMILES) | Pyroglutamic acid delivered, Ethanol base [1] [n mol/mg protein] | Pyroglutamic acid delivered, Cream base [1] [n mol/mg protein] | Pyroglutamic acid delivered [2] [n moles/cm^2 skin] | other results
CCCCCCCCCCCCOC(=O)[C@@H]1CCC(=O)N1 [Dodecyl, pyroglutamic acid n-dodecyl ester] | 4 | 1 | – | –
CCOC(=O)[C@@H]1CCC(=O)N1 [Pyroglutamic acid, ethyl ester, pyroglutamic acid ethyl ester] | 8 | 5 | – | Pyroglutamic acid delivered ([2]; 1% by weight in ethanol, newborn rat skin, 24 hours, resistant to 2 hours continuous washing with water): 18 ± 5 n moles/cm^2 skin
COC(=O)[C@@H]1CCC(=O)N1 [Pyroglutamic acid, methyl ester, pyroglutamic acid methyl ester] | – | – | 17 ± 5 | –
CCCCOC(=O)[C@@H]1CCC(=O)N1 [Pyroglutamic acid, n-butyl ester, pyroglutamic acid n-butyl ester] | 6 | 2 | 17 ± 8 | –
CCCCCCOC(=O)[C@@H]1CCC(=O)N1 [Pyroglutamic acid, n-hexyl ester, pyroglutamic acid n-hexyl ester] | 5 | 2 | 32 ± 10 | –
CCCCCCCCOC(=O)[C@@H]1CCC(=O)N1 [Pyroglutamic acid, n-octyl ester, pyroglutamic acid n-octyl ester] | 4 | 1 | 36 ± 7 | delivery to the stratum corneum of pyroglutamic acid which resisted washing out with water (in words) [2]: best result
CCCOC(=O)[C@@H]1CCC(=O)N1 [Pyroglutamic acid, n-propyl ester, pyroglutamic acid n-propyl ester] | – | – | 21 ± 8 | –
O=C1CCC(C(=O)O)N1 (stereo not shown) [pyroglutamic acid, 2-pyrrolidone-5-carboxylic acid, reference compound] | – | – | – | amount recovered from / reaching the stratum corneum following topical application (in words) [1]: little pyroglutamic acid reached the stratum corneum if applied as the free acid; amount recovered from / reaching the stratum corneum following topical application (in words) ([1]; listed as [^3 H] pyroglutamic acid): negligible amount
